Experimental data taken from patent US12723063B2, “GIPR-agonist compounds” (Eli Lilly and Company, priority 2019, dated 2026).
*1 amine or outer side, *2 acyl side, *3 side chain or, on linkers, in order; H or OH if unused. Where a SMILES comes first, the peptide text is derived from it. Side-chain parts run from the residue outwards. [ ]: non-standard residue; d: D form. The star is where a group is joined. C20 diacid = O=C(O)CCCCCCCCCCCCCCCCCCC(=O)*; γGlu = O=C(O)[C@H](CCC(=O)[*:2])N[*:1]; αMeL = CC(C)C[C@](C)(N)C(=O)O; AEEA = NCCOCCOCC(=O)O; Aib = CC(C)(N)C(=O)O

Columns and labels:
[1] = target: T1, human GLP-1 receptor (GLP-1R) (Homo sapiens, UniProt P43220); test: cAMP functional assay (HTRF) in HEK293 cells in presence of 0.1% casein; format: cell-based; settings: HEK293 cells expressing human GLP-1R, geometric mean, read-out: hGLP1R cAMP Rel EC50 nM (SEM, n)
T1 construct: expressed in transfected cells; host or cells: HEK293

[2] = target: T2, human glucagon receptor (GcgR) (Homo sapiens, UniProt P47871); test: as above; format: cell-based; settings: HEK293 cells expressing human GcgR, geometric mean, read-out: hGcgR cAMP Rel EC50 nM (SEM, n)
T2 construct: expressed in transfected cells; host or cells: HEK293

[3] = target: T3, human GLP-1R (Homo sapiens, UniProt P43220); test: [125I]-GLP-1 binding, SPA with WGA beads, 0.1% bacitracin; settings: geometric mean, read-out: hGLP1R Ki
T3 construct: expressed in transfected cells; crude membranes
Summary of the method: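 Binding buffer was 25 mM HEPES pH 7.4 with 2.5 mM CaCl2, 1 mM MgCl2, 0.1% (w/v) bacitracin, 0.003% Tween-20 and EDTA-free protease inhibitors. Four-parameter regression gave IC50, converted to Ki (geometric mean, SEM, n independent days).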

T2 sequence (P47871 26-477): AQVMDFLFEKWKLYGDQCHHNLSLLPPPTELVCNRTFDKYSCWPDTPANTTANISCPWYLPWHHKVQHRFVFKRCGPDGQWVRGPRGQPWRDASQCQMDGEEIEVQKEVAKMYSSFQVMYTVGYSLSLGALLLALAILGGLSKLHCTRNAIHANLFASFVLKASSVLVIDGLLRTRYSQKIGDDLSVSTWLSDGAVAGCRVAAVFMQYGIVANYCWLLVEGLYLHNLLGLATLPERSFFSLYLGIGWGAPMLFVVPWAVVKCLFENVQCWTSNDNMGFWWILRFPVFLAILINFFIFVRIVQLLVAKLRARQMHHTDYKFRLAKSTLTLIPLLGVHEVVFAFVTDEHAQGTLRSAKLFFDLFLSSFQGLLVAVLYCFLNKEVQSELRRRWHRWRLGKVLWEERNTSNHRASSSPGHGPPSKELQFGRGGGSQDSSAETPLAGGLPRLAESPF
T3 sequence (P43220 24-463): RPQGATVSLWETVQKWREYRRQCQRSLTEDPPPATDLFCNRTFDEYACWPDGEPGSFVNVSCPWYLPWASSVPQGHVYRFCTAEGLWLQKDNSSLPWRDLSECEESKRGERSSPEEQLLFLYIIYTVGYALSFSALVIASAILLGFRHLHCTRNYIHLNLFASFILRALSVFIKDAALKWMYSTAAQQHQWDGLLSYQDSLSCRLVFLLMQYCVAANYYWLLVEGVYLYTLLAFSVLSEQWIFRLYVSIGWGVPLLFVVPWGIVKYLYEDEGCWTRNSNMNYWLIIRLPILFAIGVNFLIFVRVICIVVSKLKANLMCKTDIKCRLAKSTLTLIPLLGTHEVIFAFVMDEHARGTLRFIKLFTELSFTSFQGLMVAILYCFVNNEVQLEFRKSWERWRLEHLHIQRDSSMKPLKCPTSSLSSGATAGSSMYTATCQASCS
T1 sequence (P43220 24-463): as above

CC[C@H](C)[C@H](NC(=O)[C@H](Cc1ccccc1)NC(=O)[C@@H](NC(=O)CNC(=O)[C@H](CCC(=O)O)NC(=O)C(C)(C)NC(=O)[C@@H](N)Cc1ccc(O)cc1)[C@@H](C)O)C(=O)N[C@@H](CO)C(=O)N[C@@H](CC(=O)O)C(=O)N[C@@H](Cc1ccc(O)cc1)C(=O)N[C@@H](CO)C(=O)N[C@H](C(=O)N[C@@](C)(CC(C)C)C(=O)N[C@@H](CC(C)C)C(=O)N[C@@H](CC(=O)O)C(=O)N[C@@H](CCCCN)C(=O)N[C@@H](CCCCNC(=O)COCCOCCNC(=O)COCCOCCNC(=O)CC[C@H](NC(=O)CCCCCCCCCCCCCCCCCCC(=O)O)C(=O)O)C(=O)N[C@@H](Cc1c[nH]cn1)C(=O)N[C@@H](CCC(N)=O)C(=O)NC(C)(C)C(=O)N[C@@H](CC(=O)O)C(=O)N[C@@H](Cc1ccccc1)C(=O)N[C@H](C(=O)N[C@@H](CCC(=O)O)C(=O)N[C@@H](Cc1c[nH]c2ccccc12)C(=O)N[C@@H](CC(C)C)C(=O)N[C@@H](CC(C)C)C(=O)N[C@@H](CCC(=O)O)C(=O)N[C@H](C(=O)NCC(=O)N1CCC[C@H]1C(=O)N[C@@H](CO)C(=O)N[C@@H](CO)C(=O)NCC(=O)N[C@@H](C)C(=O)N1CCC[C@H]1C(=O)N1CCC[C@H]1C(=O)N1CCC[C@H]1C(=O)N[C@@H](CO)C(N)=O)[C@@H](C)O)C(C)C)[C@@H](C)CC [Example 71] (H-Y[Aib]EGTFISDYSI[αMeL]LDKK([AEEA-AEEA-γGlu-C20 diacid])HQ[Aib]DFVEWLLETGPSSGAPPPS-NH2)
EC50 [1]: > 5000 nM | EC50 [2]: 581 nM | Ki [3]: 347 nM

CC[C@H](C)[C@H](NC(=O)[C@H](CC(C)C)NC(=O)[C@@H](NC(=O)CNC(=O)[C@H](CCC(=O)O)NC(=O)C(C)(C)NC(=O)[C@@H](N)Cc1ccc(O)cc1)[C@@H](C)O)C(=O)N[C@@H](CO)C(=O)N[C@@H](CC(=O)O)C(=O)N[C@@H](Cc1ccc(O)cc1)C(=O)N[C@@H](CO)C(=O)N[C@H](C(=O)N[C@@](C)(CC(C)C)C(=O)N[C@@H](CC(C)C)C(=O)N[C@@H](CC(=O)O)C(=O)N[C@@H](CCCCN)C(=O)N[C@@H](CCCCNC(=O)COCCOCCNC(=O)COCCOCCNC(=O)CC[C@H](NC(=O)CCCCCCCCCCCCCCCCCCC(=O)O)C(=O)O)C(=O)N[C@@H](Cc1c[nH]cn1)C(=O)N[C@@H](CCC(N)=O)C(=O)NC(C)(C)C(=O)N[C@@H](CCC(=O)O)C(=O)N[C@@H](Cc1ccccc1)C(=O)N[C@H](C(=O)N[C@@H](CCC(=O)O)C(=O)N[C@@H](Cc1ccc(O)cc1)C(=O)N[C@@H](CC(C)C)C(=O)N[C@@H](CC(C)C)C(=O)N[C@@H](CCC(=O)O)C(=O)N[C@H](C(=O)NCC(=O)N1CCC[C@H]1C(=O)N[C@@H](CO)C(=O)N[C@@H](CO)C(=O)NCC(=O)N[C@@H](C)C(=O)N1CCC[C@H]1C(=O)N1CCC[C@H]1C(=O)N1CCC[C@H]1C(=O)N[C@@H](CO)C(N)=O)[C@@H](C)O)C(C)C)[C@@H](C)CC [Example 72] (H-Y[Aib]EGTLISDYSI[αMeL]LDKK([AEEA-AEEA-γGlu-C20 diacid])HQ[Aib]EFVEYLLETGPSSGAPPPS-NH2)
EC50 [1]: > 5000 nM | EC50 [2]: > 5000 nM | Ki [3]: 437 nM
